Experimental data published in patent US20140065070A1, “METHODS OF PREPARING TRIAZOLE-CONTAINING RADIOIODINATED COMPOUNDS” (MCMASTER UNIVERSITY, priority 2012, published 2014).

Legend:
[1] = Biodistribution study of 123I-TAAG in normal Balb/c mice; format: in vivo; conditions: tail vein injection
Description: Animals were anesthetized with 3% isoflurane and euthanized by cervical dislocation. Blood, heart, lungs, liver, spleen, kidneys, adrenals, stomach (with contents), large intestine and caecum (with contents) and small intestines (with contents), bladder and urine, thyroid/trachea, bone, skeletal muscle and tail were collected, weighed and counted in a Perkin Elmer Wizard 1470 Automatic Gamma Counter. Decay correction was used to normalize organ activity measurements to time of dose preparation for data calculations with respect to injected dose (i.e. % ID/g).

[2] = Stability of I-TAAG construct in solution; format: physicochemical; conditions: 48 hours
Description: Reactions were complete within 10 min and the product was isolated by solid-phase extraction or semi-preparative HPLC.

[3] = Log D pH 7.4 measurement (n-octanol/PBS); format: physicochemical; conditions: n-octanol/PBS pH 7.4
Description: The samples were vortexed for 20 min and centrifuged at 6000 rpm for 5 min. Aliquots (0.1 mL) were subsequently removed from both the aqueous and the organic n-octanol layers and counted separately in a γ counter (Wallac Wizard 1470 automatic γ counter). Measurements represent three separate experiments with four extractions in each set for a total of twelve data points. The partition coefficients were then calculated using the equation D=(activity concentration in n-octanol)/(activity concentration in aqueous layer).

LNCaP xenografts = assay: Biodistribution study of 123I-TAAG-PSMA in NCr nude mice bearing LNCaP xenografts; format: in vivo, NCr nude mice
Description: LNCaP cells derived from lymph node metastases of human prostate carcinoma were purchased from ATCC. Cells were propagated using RPMI 1640 media supplemented with 10% Fetal Bovine Serum, 4 mM L-glutamine, 1 mM Sodium Pyruvate, 10 mM Hepes, 1% Penicillin Streptomycin (Invitrogen, Mississauga ON) and 0.25% D-glucose (Sigma, Oakville ON) and grown at 37° C. and 5% CO2. NCr nude homo male mice ordered from Taconic (Germantown, N.Y., USA) were injected with 2.0×10^6 LNCaP cells in 100 μL Matrigel/DPBS (1:1) subcutaneously into the right flank at 7 to 8 weeks of age. […] Animals were anesthetized with 3% isoflurane and euthanized by cervical dislocation. Blood, bone, liver, gall bladder, spleen, small intestine (with contents), large intestine and caecum (with contents), bladder, urine, skeletal muscle, brain, LNCaP tumour, heart, lung, salivary glands, kidneys, stomach (with contents), prostate, thyroid/trachea, adrenals, esophagus, tail, adipose and testes were collected, weighed and counted in a Perkin Elmer Wizard 1470 Automatic Gamma Counter. Decay correction was used to normalize organ activity measurements to time of dose preparation for data calculations with respect to injected dose (i.e. % ID/g).

LNCaP tumours = assay: SPECT-CT imaging study of 123I-TAAG-PSMA; format: in vivo, NCr mice
Description: Prior to imaging, mice were anaesthetized with 2.5% isoflurane and maintained under same conditions for the length of the SPECT and CT scans. Imaging was conducted on the first mouse at 2 and 6 hours post injection and on the second mouse at 4 and 23 hours post injection. At each time point, multiple SPECT acquisitions were completed for 32 frames at 10 sec/frame for the 2 hour time point, 20 sec/frame for the 4 and 6 hour time point or 30 sec/frame for the 23 hour time point on a GammaMedica Ideas X-SPECT system (North Ridge, Calif.). CT acquisitions consisted of 512 projections acquired over 360° with 75 Kvp, 205 mA cone beam CT system. Cobra Exxim software (Feldkamp filtered backprojection cone beam reconstruction software) was used to reconstruct the images at a voxel size of 155 microns and a matrix size of 512^3. An OS-EM interactive reconstructed method (2 iterations/8 subsets) was used to reconstruct the SPECT data which was fused to the CT data using in-house software. AMIDE software was used to analyze the images.

[4] = at pH 7.4; comparison value; cited from earlier work
[5] = 1 hr + block (PMPA 10 mg/kg), NCr nude mice bearing LNCaP xenografts, mean ± SEM
[6] = male, NCr nude, mouse, in vivo, 1 h
[7] = male, NCr nude, mouse, in vivo, 23 h
[8] = male, NCr nude, mouse, in vivo, 24 h

In the case of `O=C(O)Cn1cc(I)nn1` [^123I-TAAG, 2-(4-iodo-1H-1,2,3-triazol-1-yl)acetic acid], the “clearance from organs (biodistribution)” value [1] is reported as “clears all major organs quickly and collects in the bladder within 30 minutes”, the stability in solution [2] is reported as “stable over 48 hours in solution with no signs of deiodination” and the logD [3] is reported as -2.58 ± 0.01.
In the case of `O=C(O)CC[C@H](NC(=O)N[C@@H](CCCCNC(=O)Cn1cc(I)nn1)C(=O)O)C(=O)O` [^123I-TAAG-PSMA, (S)-2-(3-((S)-1-carboxy-5-(2-(4-iodo-1H-1,2,3-triazol-1-yl)acetamido)pentyl)ureido)pentanedioic acid], the “Tissue distribution, Adipose” value (LNCaP xenografts; [5]) is reported as 0.35 ± 0.21 % ID/g, the “Tissue distribution, Adrenals” value (LNCaP xenografts; [5]) is reported as 3.34 ± 1.49 % ID/g and the “Tissue distribution, Bladder” value (LNCaP xenografts; [5]) is reported as 10.78 ± 4.16 % ID/g. For the same molecule, the “Tissue distribution, Blood” value (LNCaP xenografts; [5]) was 0.32 ± 0.06 % ID/g, the “Tissue distribution, Bone” value (LNCaP xenografts; [5]) was 0.26 ± 0.02 % ID/g and the “Tissue distribution, Brain” value (LNCaP xenografts; [5]) was 0.05 ± 0.02 % ID/g. The “Tissue distribution, Esophagus” value (LNCaP xenografts; [5]) was 0.32 ± 0.04 % ID/g, the “Tissue distribution, Gall Bladder” value (LNCaP xenografts; [5]) was 1.32 ± 0.53 % ID/g and the “Tissue distribution, Heart” value (LNCaP xenografts; [5]) was 0.15 ± 0.04 % ID/g. For the same molecule, the “Tissue distribution, Kidneys” value (LNCaP xenografts; [5]) was 9.57 ± 5.17 % ID/g, the “Tissue distribution, Large Intestine + Caecum” value (LNCaP xenografts; [5]) was 0.12 ± 0.03 % ID/g and the “Tissue distribution, Liver” value (LNCaP xenografts; [5]) was 2.25 ± 0.29 % ID/g. For the same molecule, the “Tissue distribution, Lung” value (LNCaP xenografts; [5]) was 0.36 ± 0.08 % ID/g, the “Tissue distribution, Prostate” value (LNCaP xenografts; [5]) was 3.85 ± 2.91 % ID/g and the “Tissue distribution, Salivary Glands” value (LNCaP xenografts; [5]) was 0.52 ± 0.12 % ID/g. The “Tissue distribution, Skeletal Muscle” value (LNCaP xenografts; [5]) was 0.19 ± 0.03 % ID/g, the “Tissue distribution, Small Intestine” value (LNCaP xenografts; [5]) was 0.30 ± 0.09 % ID/g and the “Tissue distribution, Spleen” value (LNCaP xenografts; [5]) was 0.13 ± 0.03 % ID/g. The “Tissue distribution, Stomach” value (LNCaP xenografts; [5]) was 0.49 ± 0.07 % ID/g, the “Tissue distribution, Testes” value (LNCaP xenografts; [5]) was 1.16 ± 1.05 % ID/g and the “Tissue distribution, Thyroid/Trachea” value (LNCaP xenografts; [5]) was 0.62 ± 0.24 % ID/g. The “Tissue distribution, Urine” value (LNCaP xenografts; [5]) was 486.70 ± 163.60 % ID/g, the “Tissue distribution, Adipose” value (LNCaP xenografts; [6]) was 1.73 ± 0.26 % ID/g and the “Tissue distribution, Adrenals” value (LNCaP xenografts; [6]) was 8.45 ± 2.13 % ID/g. The “Tissue distribution, Bladder” value (LNCaP xenografts; [6]) was 1.78 ± 0.23 % ID/g, the “Tissue distribution, Blood” value (LNCaP xenografts; [6]) was 0.81 ± 0.07 % ID/g and the “Tissue distribution, Bone” value (LNCaP xenografts; [6]) was 0.41 ± 0.07 % ID/g. The “Tissue distribution, Brain” value (LNCaP xenografts; [6]) was 0.06 ± 0.01 % ID/g, the “Tissue distribution, Esophagus” value (LNCaP xenografts; [6]) was 1.3 ± 0.26 % ID/g and the “Tissue distribution, Gall Bladder” value (LNCaP xenografts; [6]) was 1.28 ± 0.26 % ID/g. The “Tissue distribution, Heart” value (LNCaP xenografts; [6]) was 0.85 ± 0.29 % ID/g, the “Tissue distribution, Kidneys” value (LNCaP xenografts; [6]) was 137.54 ± 11.43 % ID/g and the “Tissue distribution, Large Intestine + Caecum” value (LNCaP xenografts; [6]) was 0.27 ± 0.06 % ID/g. The “Tissue distribution, Liver” value (LNCaP xenografts; [6]) was 2.32 ± 0.28 % ID/g, the “Tissue distribution, Lung” value (LNCaP xenografts; [6]) was 2.58 ± 0.46 % ID/g and the “Tissue distribution, Prostate” value (LNCaP xenografts; [6]) was 1.89 ± 0.62 % ID/g. The “Tissue distribution, Salivary Glands” value (LNCaP xenografts; [6]) was 2.97 ± 0.95 % ID/g, the “Tissue distribution, Skeletal Muscle” value (LNCaP xenografts; [6]) was 0.33 ± 0.04 % ID/g and the “Tissue distribution, Small Intestine” value (LNCaP xenografts; [6]) was 0.64 ± 0.13 % ID/g. The “Tissue distribution, Spleen” value (LNCaP xenografts; [6]) was 4.98 ± 1.31 % ID/g, the “Tissue distribution, Stomach” value (LNCaP xenografts; [6]) was 0.90 ± 0.07 % ID/g and the “Tissue distribution, Testes” value (LNCaP xenografts; [6]) was 0.69 ± 0.10 % ID/g. For the same molecule, the “Tissue distribution, Thyroid/Trachea” value (LNCaP xenografts; [6]) was 1.46 ± 0.3 % ID/g, the “Tissue distribution, Urine” value (LNCaP xenografts; [6]) was 43.99 ± 5.54 % ID/g and the “Tumor to tissue ratio, Tumour/blood” value (LNCaP xenografts; [6]) was 28.22 ± 7.12. For the same molecule, the “Tumor to tissue ratio, Tumour/skeletal muscle” value (LNCaP xenografts; [6]) was 78.06 ± 30.62, the “activity retained in the tumour” value (LNCaP xenografts; [7]) was 15 % ID/g and the “remaining activity in the thyroid” value (LNCaP xenografts; [7]) was “about 10 % ID/g”. For the same molecule, the “Tissue distribution, Adipose” value (LNCaP xenografts; [8]) was 0.02 ± 0.01 % ID/g, the “Tissue distribution, Adrenals” value (LNCaP xenografts; [8]) was 0.33 ± 0.07 % ID/g and the “Tissue distribution, Bladder” value (LNCaP xenografts; [8]) was 0.08 ± 0.02 % ID/g. The “Tissue distribution, Blood” value (LNCaP xenografts; [8]) was 0.01 ± 0.00 % ID/g, the “Tissue distribution, Bone” value (LNCaP xenografts; [8]) was 0.04 ± 0.01 % ID/g and the “Tissue distribution, Brain” value (LNCaP xenografts; [8]) was 0.03 ± 0.00 % ID/g. The “Tissue distribution, Esophagus” value (LNCaP xenografts; [8]) was 0.07 ± 0.01 % ID/g, the “Tissue distribution, Gall Bladder” value (LNCaP xenografts; [8]) was 0.19 ± 0.08 % ID/g and the “Tissue distribution, Heart” value (LNCaP xenografts; [8]) was 0.01 ± 0.00 % ID/g. For the same molecule, the “Tissue distribution, Kidneys” value (LNCaP xenografts; [8]) was 0.99 ± 0.27 % ID/g, the “Tissue distribution, LNCap Tumour” value (LNCaP xenografts; [8]) was 15.31 ± 4.23 % ID/g and the “Tissue distribution, Large Intestine + Caecum” value (LNCaP xenografts; [8]) was 0.04 ± 0.01 % ID/g. The “Tissue distribution, Liver” value (LNCaP xenografts; [8]) was 0.03 ± 0.01 % ID/g, the “Tissue distribution, Lung” value (LNCaP xenografts; [8]) was 0.01 ± 0.00 % ID/g and the “Tissue distribution, Prostate” value (LNCaP xenografts; [8]) was 0.09 ± 0.03 % ID/g. For the same molecule, the “Tissue distribution, Salivary Glands” value (LNCaP xenografts; [8]) was 0.05 ± 0.01 % ID/g, the “Tissue distribution, Skeletal Muscle” value (LNCaP xenografts; [8]) was 0.01 ± 0.00 % ID/g and the “Tissue distribution, Small Intestine” value (LNCaP xenografts; [8]) was 0.02 ± 0.01 % ID/g. For the same molecule, the “Tissue distribution, Spleen” value (LNCaP xenografts; [8]) was 0.03 ± 0.00 % ID/g, the “Tissue distribution, Stomach” value (LNCaP xenografts; [8]) was 0.07 ± 0.03 % ID/g and the “Tissue distribution, Testes” value (LNCaP xenografts; [8]) was 0.01 ± 0.00 % ID/g. The “Tissue distribution, Thyroid/Trachea” value (LNCaP xenografts; [8]) was 9.36 ± 1.05 % ID/g, the “Tissue distribution, Urine” value (LNCaP xenografts; [8]) was 1.04 ± 0.39 % ID/g and the “Tumor to tissue ratio, Tumour/blood” value (LNCaP xenografts; [8]) was 1867 ± 499.72. The “Tumor to tissue ratio, Tumour/skeletal muscle” value (LNCaP xenografts; [8]) was 1531 ± 422.74, the logD [3] was -3.23 ± 0.05 and the SPECT-CT image uptake (LNCaP tumours; 23-24 hours post injection) was “the activity was found only in the tumour and in the thyroid”. The SPECT-CT image uptake (LNCaP tumours; two hours post injection) was “uptake of the agent in the kidneys, bladder and a small amount in the tumour”.
In the case of `O=C(O)c1ccc(I)cc1` [p-iodobenzoic acid], the “log D” value [4] is given as 0.07.
